# Test results taken from paper PMC7719179, “Small molecule inhibition of Dynamin-dependent endocytosis targets multiple niche signals and impairs leukemia stem cells” (Nature Communications, 2020).
# “And” between values parts separate entries of the source, which are not always exact repeats. Equal entries are not always repeated.
# Legend:
# [1] = system: IL-7R and pStat5 in Lmo2^Tg DN3a cells; experiment: IL-7R internalization assay and pStat5 in Lmo2^Tg DN3a cells after IL-7; format: cell-based, mouse; settings: +IL-7, 0.2 μM Dynole 34-2
# Protocol: Phosphoflow analysis was performed as previously described. Briefly, 2 × 10^6 cells stained for surface markers were subsequently resuspended into PBS 1× + 4% v/v paraformaldehyde and incubated for 10 min at 4 °C for fixation. Fixed cells were washed twice using PBS 1×, then resuspended in pre-chilled at −20 °C Perm Buffer III (BD Pharmingen) and incubated 30 min at 4 °C for permeabilization. Cells were washed twice using PBS 1× and incubated overnight at 4 °C in PBS 1× + 2% v/v fetal calf serum (FCS) with Cell Signalling purified antibodies (Genesearch Pty Ltd, Arundel QLD, Australia) against pSTAT5 (Tyr694; #9359), phospho-p38 MAPK (Thr180/Tyr182; #4511), phospho-p44/42 (Erk1/2; #9102), phospho-S6 (Ser235/236; #4856) and phospho-Akt (Ser473; #9271) or isotype control. […] Fluorescence-activated cell sorting (FACS) analysis was performed using LSRII and LSR Fortessa cytometers, following the gating strategies described in Supplementary Fig. 11. […]
# For in vitro IL-7 stimulation assays, cells were starved in serum-free DMEM at 37 °C, then incubated with either vehicle or Dynole 34-2 or Ruxolitinib (INCB018424; #S1378, Selleckchem), or DAPT (GSI-IX; #S2215, Selleckchem) resuspended in DMSO for 1 h. […] The analysis was performed in triplicate and the mean fluorescence intensity (MFI) observed without stimulation was reported as 100%.
# [2] = system: AML01-307 and AML18 patient-derived xenografts; experiment: Xenograft models of human AML (AML01-307, AML18): leukemic burden in blood, bone marrow, spleen; spleen weight; format: in vivo
# Protocol: Patient-derived xenograft models were established as previously described[97],[98]. All experiments were pre-approved by the Human Research Ethics Committee of the University of New South Wales (UNSW), the UNSW Animal Care and Ethics Committee, the Alfred Health Human Ethics Committee and the AMREP Animal Ethics Committee. For transplantation assays, 10^6 splenocytes harvested from successfully engrafted primary human ETP-ALL or T-ALL xenografts were injected into nonobese diabetic/severe combined immunodeficient (NOD.Cg-Prkdc^scid, also termed NOD/SCID) or NOD/SCID/Il2rg^tm1wjl/SzJ (NSG) mice[99]. Moreover, 1.5 × 10^6 cells splenocytes harvested from successfully engrafted patient-derived AML xenografts were injected into nonobese diabetic/severe immunodeficient (NOD.Cg-Rag1^tm1MomIl2rg^tm1wjl/SzJ, also termed NRG) mice expressing human IL-3, human GM-CSF and human SCF from the SGM3 triple transgene (NRGS)[100]. Engraftment into recipients was monitored by FACS analysis of peripheral blood as previously described. […] Both males and females were used. […] Kaplan–Meier survival and statistical analyses were performed using GraphPad Prism. 6.0 software (GraphPad Software, Inc.).
# Spleen and sternum from recipients were collected, incubated at least 24 h in 3.7% neutral buffered formalin (pH 7.4), embedded in paraffin and sectioned at 8 μm onto Superforst-Plus slides. Samples were incubated with an anti-human CD45 antibody (Dako, #M0701) in Dako Autostainer Plus solution, then incubated with a sheep anti-mouse IgG conjugated to HRP and processed as per standard protocols using 3,3’ Diaminobenzidine staining (#ab64238, Abcam) for all immunoblots, as previously described. Samples were imaged and annotated using an Aperio ScanScope and software system (Leica Biosystems). […]
smiles,measurement,setting,value
"CCCCCCCCNC(=O)C(C#N)=Cc1cn(CCCN(C)C)c2ccccc12 [Dynole 34-2, 2-Cyano-N-octyl-3-(1-(3-dimethylaminopropyl)-1H-indol-3-yl)-acrylamide]",IL-7R (MFI),[1],14813 MFI and 16581 MFI and 16466 MFI
same,pStat5 (MFI),[1],2583 MFI and 1903 MFI and 3336 MFI and 3007 MFI
same,Absolute numbers human CD45+ cells,"[2]; AML01-307, BM",749000 and 744000 and 1060000
same,Absolute numbers human CD45+ cells,"[2]; AML01-307, Spleen",5750000 and 6290000 and 9130000
same,Proportion of hCD45+ (%) in peripheral blood,"[2]; AML01-307, time 1 weeks",0.7% and 0.2% and 0.4% and 0.1%
same,Proportion of hCD45+ (%) in peripheral blood,"[2]; AML01-307, time 2 weeks",0.7% and 1.2% and 3.7% and 1% and 1.9% and 0.8%
same,Proportion of hCD45+ (%) in peripheral blood,"[2]; AML01-307, time 3 weeks",2.8% and 3.7% and 3.9% and 4.4% and 5.1% and 2% and 1.3%
same,Proportion of hCD45+ (%) in peripheral blood,"[2]; AML01-307, time 4 weeks",5.1% and 5.66% and 9.2% and 9% and 8.38% and 2.7% and 2.566% and 4.8%
same,Proportion of hCD45+ (%) in peripheral blood,"[2]; AML01-307, time 5 weeks",5.6% and 7.7% and 4.3% and 6.7% and 5.2% and 3.11% and 3.44% and 4.93%
same,Proportion of hCD45+ (%) in peripheral blood,"[2]; AML01-307, time 6 weeks",17.22%
same,Proportion of hCD45+ (%) in peripheral blood,"[2]; AML01-307, time 8 weeks",18.86% and 22% and 33.26% and 20.57% and 30.66% and 22.85%
same,Proportion of hCD45+ (%) in peripheral blood,"[2]; AML01-307, time 9 weeks",36.6% and 52.3% and 29.5% and 40.0%
same,Absolute numbers human CD45+ cells,"[2]; AML18, BM",436000 and 427000 and 629000 and 665000
same,Proportion of hCD45+ (%) in peripheral blood,"[2]; AML18, time 1 weeks",0.1% and 0.2% and 0.6% and 0.5% and 0.0% and 0.4%
same,Proportion of hCD45+ (%) in peripheral blood,"[2]; AML18, time 4 weeks",31.4%
same,Proportion of hCD45+ (%) in peripheral blood,"[2]; AML18, time 7 weeks",30.6% and 36.7%
same,Proportion of human CD45 (%) in peripheral blood,[2]; AML18 xenograft recipients,2% and 5.6% and 2.4% and 1.6% and 4.8% and 5% and 2.26% and 2.3%
same,Spleen weight,[2]; PDX AML01-307,0.115 g and 0.137 g and 0.108 g
same,Spleen weight,[2]; PDX AML18,0.297 g and 0.287 g and 0.182 g and 0.316 g
